Patent US11352374B2 (University of Alaska Anchorage, priority 2015, dated 2022)

How the values were obtained:
[1] = system: normal fibroblast cells (Hs 895.Sk); assay: Anti-tumor effect of CORCB-1 in the presence of ROS, normal cells; type: cell-based, human; conditions: 1 mM CORCB-1 + 0.2 mM H2O2, 6 days
Method: (§1) To further test the anti-tumor effect of CORCBs in the presence of ROS, fibroblast tumor cells (Hs 895.T) and normal fibroblast cells (Hs 895.Sk) were incubated with 1 mM of CORCB-1 and 0.2 mM of H2O2 mixed in the DMEM media without FBS. Media was exchanged every 2 days for longer incubation periods such as 4 and 6 days. […] Both tumor and normal cells are close to 100% viable at 2 days, but for longer treatment periods, tumor cells growth rate declines and normal cell growth remains steady. […] Normal cells are preserved under stressed condition while tumor cells are destroyed.

[2] = as above; type: cell-based, human; conditions: human, Hs 895.Sk normal fibroblast cells; 1 mM CORCB-1 + 0.2 mM H2O2, 2 days; read-out: % viable normal cells at 2 days
Method: as §1

[3] = system: LPS-induced TNF-α production in mouse macrophage cells (RAW264.7); assay: Inhibition of LPS-induced TNF-α production (ELISA); type: cell-based
Method: To test the anti-inflammatory effect of CORCBs, mouse macrophage cells (RAW264.7) were used. 2×10^4 cells per well was seeded in 96-well plate with different concentrations of CORCBs. Cells were incubated in DMEM with 10% FBS at 37° C. and 5% CO2 for 24 hours. LPS (100 ng/mL) was then added and incubated for 4 additional hours. The media containing secreted inflammatory cytokines were collected and these cells were subjected to cell viability test to check their viability. TNF-α concentration in each sample was measured by ELISA assay.

[4] = CO released in the presence of Fenton reagent (hydroxyl radical), CO meter; type: physicochemical; conditions: per 5 minutes
Method: (§2) A test to confirm that CO is one of the decomposition products from CORCBs is done by utilizing commercially available CO meter. Four mole of the compounds at the concentrations of 6-12 mg/mL in aqueous solution was incubated at 37° C. in a sealed vessel with 50 mL gas space. CO meter was used to read the concentration of liberated CO gas from the solution. Measurement by CO meter in ppm, after converting to the micromole amount, was used for calculating the percent CO released based on the original amount of compound.
All amine carboxyboranes express a faster CO release rate when incubated with the reactive oxygen species. The two tested are the common ROS formed naturally in the cells—a non-radical hydrogen peroxide (H2O2) and Fenton reagent which is a more reactive hydroxyl radical (.OH) formed from Fe^2+ and H2O2. Four mole of CORCB compounds were mixed in an aqueous solution with ROS and incubated in a sealed vessel. At respective times, the head space air was injected into the meter to read the amount of CO produced. For analysis by NMR spectroscopy, the reaction mixture was prepared in NMR tube in D2O solvent and incubated for the amount of time indicated. While some CORCBs have increased amount of CO produced when treated with 3 times equivalents of H2O2, CORCB-1 produces similar or less amount of CO. In every sample, either acid or salt form, the hydroxyl radical extracts the amount of CO to a much higher magnitude within a very short amount of time.

physchem = assay: physchem
Method: The kinetics of compound decomposition was followed by observing the ratio of the amount of free amine group to the original compound using ^1H NMR. For instance, Hexamethylenetetramine carboxyborane (CORCB-1) in D2O at the concentration of 12 mg/mL was incubated at 37° C. in the standard NMR tube. ^1H NMR spectra were obtained at different time points to study the kinetics of product formation. […] The ratio of integrated peaks were used for determining the percent of each species present and plotted as a function of time to show the kinetics of auto-decomposition.
^1H, ^11B, and ^13C NMR spectra were recorded at different time points to study the kinetics as well as to observe transformation of CORCB-1 into the products.
In order to determine whether CO is produced in physiological condition, CORCB acid forms were dissolved in aqueous solution at neutral pH. The solution was then subjected to incubation at 37° C. for extended period of time. For studies using NMR, CORCBs were dissolved in D2O. The kinetics of CORCB molecules breaking down to produce CO is determined by taking ^1H NMR spectra at various time points (FIG. 3).
CORCB sodium and ammonium salts were also tested for decomposition by using ^1H NMR spectroscopy. Samples were set up as in Example 1 and rate of decomposition measured (FIG. 4).

[5] = CO released on auto-decomposition in water at 37° C., head space measured with CO meter; type: physicochemical
Method: as §2
CO liberated from the molecules and coming out to the head space are detected and quantified by using CO meter.

[6] = system: LPS-induced TNF-α production in RAW264.7 cells; assay: LPS-induced TNF-α production with CORCB plus H2O2; type: cell-based, mouse
Method: RAW264.7 cells at the density of 2×10^4 cells per well in 96-well plate were treated with varying concentrations of CORCB plus different concentrations of H2O2.

horse Mb = assay: Myoglobin (Mb) assay: deoxy-Mb to carboxy-Mb; type: biochemical; conditions: in one hour; 69 μM deoxy-Mb, 50× excess compound, 37° C.; compound per FIG. 2 legend
Method: Since there was no literature that reported the use of CO meter with CO releasing molecules, to further confirm that CORCBs release CO, Mb assay was performed using the standard procedure used with other CO releasing compounds. In brief, 1 mM horse Mb in 50 mM sodium phosphate buffer (pH 7.4) was deoxygenated using 3 equivalents of sodium dithionite. Excess dithionite was removed by desalting column. Deoxy-Mb at the concentration of 69 μM was mixed with CORM (50× excess) and incubated in 37° C. Visible spectra in the range of 550-600 nm were recorded at every 10 minutes. Overlaid spectra of these samples show a gradual transformation of deoxy-Mb to carboxy-Mb (FIG. 2). The percent CO released calculated was approximately 1% in one hour.

[7] = system: normal human skin fibroblast cells (Hs 895.Sk); conditions: CORCB-1 (3 mM) + imatinib 20 or 40 μM, day 4 and 6
Method: This was tested by using a chemotherapy drug, imatinib, in normal human skin fibroblast cells (Hs 895.Sk). The cultures were treated with 20 μM and 40 μM concentration of imatinib as controls to see their toxicity. Samples with mixtures of CORCB-1 and imatinib were also incubated and cell viability was determined on 2, 4, and 6 days. Media was exchanged every 2 days with fresh reagents.

[8] = CO generated at different pHs, CO meter; type: physicochemical; conditions: compound per FIG. 10 legend
Method: FIG. 10 graphically depicts the percent CO generated by CORCB-1 in different pHs monitored by the CO meter. CORCB was dissolved in water with adjusted pH before incubation in 37° C. After 12 hours, CO gas in the head space was analyzed using a CO meter.
CO releasing property of CORCBs is not limited only to the neutral environment. It works in any pH ranging from 2 to 12 as evident in FIG. 10. […] CO is released at the highest amount in the acidic condition of pH 2 with more than 25% in 12 hours.

[9] = system: fibroblast tumor cells (Hs 895.T) and normal fibroblast cells (Hs 895.Sk)
Method: Cells were seeded at the density of 3×10^3 cells per well in 96-well plate with different concentrations of CORCBs in DMEM media without FBS, and incubated at 37° C. with 5% CO2 for 2 days.

[10] = Decomposition (amine release) in the presence of H2O2 monitored by 1H NMR; type: physicochemical
Method: (§3) The two tested are the common ROS formed naturally in the cells—a non-radical hydrogen peroxide (H2O2) and Fenton reagent which is a more reactive hydroxyl radical (.OH) formed from Fe^2+ and H2O2. Four mole of CORCB compounds were mixed in an aqueous solution with ROS and incubated in a sealed vessel. At respective times, the head space air was injected into the meter to read the amount of CO produced. For analysis by NMR spectroscopy, the reaction mixture was prepared in NMR tube in D2O solvent and incubated for the amount of time indicated.
The reaction with H2O2 is slow-acting, therefore, NMR spectroscopy can be used for monitoring the rate.

[11] = CO released in the presence of H2O2, CO meter; type: physicochemical
Method: as §2, §3

[12] = 24 hours, 1.5 equivalents H2O2, 37° C.

O=C(O)B[N+]12CN3CN(CN(C3)C1)C2 [CORCB-1, Hexamethylenetetramine carboxyborane]
normal cell growth, 6th day [1]: 89% | viability at 2 days, 1 mM [2]: ~100% | amount of TNF-α secreted, compound alone ([3]; 1 mM, LPS only = 100%): about 80% | effect on LPS-induced TNF-α production (in words) ([3]; 24 hours compound, then LPS 100 ng/mL 4 hours): inhibits the production of TNF-α | Rate of % CO released by CORCBs, With Fenton Reagent [4]: 60.90 ± 0.52% | half-life at 12 mg/mL (physchem): 84 h | Decomposition rate at 24 hours, 1H NMR, Autodecomposition (physchem; 24 hours, 37° C.): 19% | rate of auto-decomposition (physchem; as stated in Example 10): around 20 % per day | rate of decomposition (physchem; in the beginning, acid form, D2O, 37° C.): 0.85 % per hour | CO release rate ([5]; 37° C.): approximately 1 % per hour | % CO liberated at 24 hours by CO meter ([5]; 24 hours, 37° C.): 23% | CO release rate at 24 hours, CO meter, Autodecomposition ([5]; 24 hours, 37° C.): 24% | Rate of % CO released by CORCBs, Autodecomposition ([5]; per 24 hour): 23.47 ± 0.38% | amount of TNF-α secreted, together with H2O2 [6]: about 25% | percent CO released (Mb assay) (horse Mb): approximately 1% | survival rate, mixture of imatinib and CORCB-1 [7]: around 70% | CO released at pH 2 ([8]; pH 2, 12 hours, 37° C.): more than 25% | CO release rate as a function of pH (in words) ([8]; pH 2 to 12, 12 hours): the lowest in pH 7 | selectivity of growth stimulation (in words) ([9]; Hs 895.Sk versus Hs 895.T, 48 hours): more selective towards the normal fibroblast cells | viable cells compared with untreated cells ([9]; human, 48 h): ~180% | cell viability after the TNF-α assay (in words) (RAW264.7 cells): all cells were still healthy | % decomposition / free amine released by 1H NMR with H2O2 ([10]; 1.5 equivalents H2O2, 24 hours): 51% | Decomposition rate at 24 hours, 1H NMR, With 1.5x H2O2 [10, 12]: 50.90% | % CO produced by CO meter with H2O2 ([11]; 1.5 equivalents H2O2, 24 hours): 12% | CO release rate at 24 hours, CO meter, With 1.5x H2O2 [11, 12]: 12.10% | Rate of % CO released by CORCBs, With H2O2 ([11]; per 24 hour, H2O2 equivalents not given): 20.86 ± 0.82%
